Experimental data: the NIST ThermoML archive (doi:10.1016/j.jct.2009.08.012)
“And” between values parts separate entries of the source, which are not always exact repeats. Identical values can stand only once. Numbers after ± are expanded uncertainties.

Test: activity coefficient (dimensionless); of the first substance listed, at infinite dilution; xn = mol fraction of the nth substance listed
Conditions: Liquid, Chromatography, x1 = 0

Structure (SMILES)	activity coefficient (303.15 K)	activity coefficient (313.15 K)	activity coefficient (323.15 K)
C=CCCCCCCCC [1-decene] + CCCCCCCC[N+](C)(CCCCCCCC)CCCCCCCC.O=S(=O)([N-]S(=O)(=O)C(F)(F)F)C(F)(F)F	2.26 and 2.22	2.13 and 2.11	2.07 and 2.05
C#CCCCCCCCC [1-decyne] + CCCCCCCC[N+](C)(CCCCCCCC)CCCCCCCC.O=S(=O)([N-]S(=O)(=O)C(F)(F)F)C(F)(F)F	1.3 ± 0.04	1.33 and 1.31	1.32 and 1.34
C=CCCCCC [1-heptene] + CCCCCCCC[N+](C)(CCCCCCCC)CCCCCCCC.O=S(=O)([N-]S(=O)(=O)C(F)(F)F)C(F)(F)F	1.46 and 1.44	1.45 and 1.43	1.44 and 1.42
C#CCCCCC [1-heptyne] + CCCCCCCC[N+](C)(CCCCCCCC)CCCCCCCC.O=S(=O)([N-]S(=O)(=O)C(F)(F)F)C(F)(F)F	0.89 ± 0.1	0.89 and 0.91	0.9 and 0.92
C#CCCCC [1-hexyne] + CCCCCCCC[N+](C)(CCCCCCCC)CCCCCCCC.O=S(=O)([N-]S(=O)(=O)C(F)(F)F)C(F)(F)F	0.59 ± 0.03	0.59 ± 0.03	0.6 and 0.62
C=CCCCCCCC [1-nonene] + CCCCCCCC[N+](C)(CCCCCCCC)CCCCCCCC.O=S(=O)([N-]S(=O)(=O)C(F)(F)F)C(F)(F)F	1.99 ± 0.09	1.87 and 1.91	1.81 and 1.85
C#CCCCCCCC [1-nonyne] + CCCCCCCC[N+](C)(CCCCCCCC)CCCCCCCC.O=S(=O)([N-]S(=O)(=O)C(F)(F)F)C(F)(F)F	1.15 ± 0.04	1.15 and 1.17	1.18 ± 0.04
C#CCCCCCC [1-octyne] + CCCCCCCC[N+](C)(CCCCCCCC)CCCCCCCC.O=S(=O)([N-]S(=O)(=O)C(F)(F)F)C(F)(F)F	1.07 and 1.05	1.08 and 1.06	1.1 and 1.08
C=CCCC [1-pentene] + CCCCCCCC[N+](C)(CCCCCCCC)CCCCCCCC.O=S(=O)([N-]S(=O)(=O)C(F)(F)F)C(F)(F)F	0.78 ± 0.03	0.76 and 0.74	0.76 and 0.78
C#CCCC [1-pentyne] + CCCCCCCC[N+](C)(CCCCCCCC)CCCCCCCC.O=S(=O)([N-]S(=O)(=O)C(F)(F)F)C(F)(F)F	0.53 and 0.52	0.52 and 0.53	0.54 and 0.55
CC(C)=O [acetone] + CCCCCCCC[N+](C)(CCCCCCCC)CCCCCCCC.O=S(=O)([N-]S(=O)(=O)C(F)(F)F)C(F)(F)F	0.35 ± 0.04	0.4 and 0.38	0.42 and 0.44
c1ccccc1 [benzene] + CCCCCCCC[N+](C)(CCCCCCCC)CCCCCCCC.O=S(=O)([N-]S(=O)(=O)C(F)(F)F)C(F)(F)F	0.32 and 0.31	0.31 ± 0.04	0.31 and 0.32
CCC(C)=O [butanone] + CCCCCCCC[N+](C)(CCCCCCCC)CCCCCCCC.O=S(=O)([N-]S(=O)(=O)C(F)(F)F)C(F)(F)F	0.32 and 0.34	0.31 and 0.33	0.29 and 0.31
C1CCCCCC1 [cycloheptane] + CCCCCCCC[N+](C)(CCCCCCCC)CCCCCCCC.O=S(=O)([N-]S(=O)(=O)C(F)(F)F)C(F)(F)F	0.95 and 0.94	0.9 and 0.91	0.89 and 0.88
C1CCCCC1 [cyclohexane] + CCCCCCCC[N+](C)(CCCCCCCC)CCCCCCCC.O=S(=O)([N-]S(=O)(=O)C(F)(F)F)C(F)(F)F	0.84 ± 0.03	0.8 and 0.81	0.8 and 0.79
C1CCCCCCCC1 [cyclononane] + CCCCCCCC[N+](C)(CCCCCCCC)CCCCCCCC.O=S(=O)([N-]S(=O)(=O)C(F)(F)F)C(F)(F)F	1.76 and 1.74	1.68 ± 0.07	1.63 and 1.61
C1CCCCCCC1 [cyclooctane] + CCCCCCCC[N+](C)(CCCCCCCC)CCCCCCCC.O=S(=O)([N-]S(=O)(=O)C(F)(F)F)C(F)(F)F	1.08 and 1.07	1.01 and 1.03	0.99 and 1.03
C1CCCC1 [cyclopentane] + CCCCCCCC[N+](C)(CCCCCCCC)CCCCCCCC.O=S(=O)([N-]S(=O)(=O)C(F)(F)F)C(F)(F)F	0.71 ± 0.03	0.69 and 0.7	0.7 and 0.69
CCCCCCCCCC [decane] + CCCCCCCC[N+](C)(CCCCCCCC)CCCCCCCC.O=S(=O)([N-]S(=O)(=O)C(F)(F)F)C(F)(F)F	3.2 and 3	2.74 and 2.72	2.5 ± 0.11
CCO [ethanol] + CCCCCCCC[N+](C)(CCCCCCCC)CCCCCCCC.O=S(=O)([N-]S(=O)(=O)C(F)(F)F)C(F)(F)F	0.94 and 0.95	0.85 and 0.87	0.8 and 0.83
CCCCCCC [heptane] + CCCCCCCC[N+](C)(CCCCCCCC)CCCCCCCC.O=S(=O)([N-]S(=O)(=O)C(F)(F)F)C(F)(F)F	1.3 and 1.31	1.26 and 1.28	1.25 ± 0.04
C=CCCCC [hex-1-ene] + CCCCCCCC[N+](C)(CCCCCCCC)CCCCCCCC.O=S(=O)([N-]S(=O)(=O)C(F)(F)F)C(F)(F)F	0.89 and 0.88	0.85 ± 0.03	0.88 and 0.87
CCCCCC [hexane] + CCCCCCCC[N+](C)(CCCCCCCC)CCCCCCCC.O=S(=O)([N-]S(=O)(=O)C(F)(F)F)C(F)(F)F	1.13 ± 0.03	1.11 and 1.12	1.11 and 1.1
CO [methanol] + CCCCCCCC[N+](C)(CCCCCCCC)CCCCCCCC.O=S(=O)([N-]S(=O)(=O)C(F)(F)F)C(F)(F)F	0.88 and 0.89	0.81 and 0.82	0.79 and 0.81
CCCCCCCCC [nonane] + CCCCCCCC[N+](C)(CCCCCCCC)CCCCCCCC.O=S(=O)([N-]S(=O)(=O)C(F)(F)F)C(F)(F)F	2.57 and 2.59	2.39 ± 0.11	2.21 ± 0.1
C=CCCCCCC [oct-1-ene] + CCCCCCCC[N+](C)(CCCCCCCC)CCCCCCCC.O=S(=O)([N-]S(=O)(=O)C(F)(F)F)C(F)(F)F	1.69 ± 0.07	1.65 and 1.67	1.64 and 1.66
CCCCCCCC [octane] + CCCCCCCC[N+](C)(CCCCCCCC)CCCCCCCC.O=S(=O)([N-]S(=O)(=O)C(F)(F)F)C(F)(F)F	1.52 and 1.54	1.46 and 1.49	1.44 and 1.43
CCCCC [pentane] + CCCCCCCC[N+](C)(CCCCCCCC)CCCCCCCC.O=S(=O)([N-]S(=O)(=O)C(F)(F)F)C(F)(F)F	1.01 and 1	0.99 ± 0.11	1 and 0.98
CCCO [propan-1-ol] + CCCCCCCC[N+](C)(CCCCCCCC)CCCCCCCC.O=S(=O)([N-]S(=O)(=O)C(F)(F)F)C(F)(F)F	1.37 and 1.35	1.24 and 1.22	1.13 and 1.15
Cc1ccccc1 [toluene] + CCCCCCCC[N+](C)(CCCCCCCC)CCCCCCCC.O=S(=O)([N-]S(=O)(=O)C(F)(F)F)C(F)(F)F	0.51 ± 0.03	0.52 ± 0.03	0.55 and 0.53
